Results from the supplement of paper PMC11061612.

What was measured:
[1] = system: HPAF-II (Pancreatic Carcinoma); assay: Bliss excess, mean over the matrix (fraction); higher = more synergy
In short: (§1)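 Bliss excess equals the observed combination effect minus the expected value EA + EB − EA·EB, where EA and EB are the effects of each agent alone. Combination Emax is the second-highest inhibition within the matrix. Inhibition was scaled from CellTiter-Glo 2.0 luminescence, with 0 set by vehicle wells and 1 by blank wells, after 72 hours of two-drug dosing of cells plated in 1536-well plates.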

[2] = system: CPC-N (Small Cell Lung Carcinoma); assay: combination Emax (second highest fraction inhibited in the dose matrix, 72 h); higher = more inhibition; extreme values may be limits of the assay
In short: as §1

[3] = system: NAMALWA (Burkitt's Lymphoma); assay: as above
In short: as §1

SK-N-SH (Neuroblastoma) = assay: as above
In short: as §1

[4] = system: CL-11 (Colorectal Carcinoma); assay: as above
In short: as §1

GAK (Melanoma) = assay: as above
In short: as §1

[5] = system: SNU-423 (Hepatocellular Carcinoma); assay: as above
In short: as §1

[6] = system: SK-CO-1 (Colorectal Carcinoma); assay: as above
In short: as §1

[7] = system: SAT (Head and Neck Carcinoma); assay: as above
In short: as §1

ES6 (Ewing's Sarcoma) = assay: as above
In short: as §1

[8] = system: ZR-75-30 (Breast Carcinoma); assay: as above
In short: as §1

[9] = system: NCI-H1963 (Small Cell Lung Carcinoma); assay: as above
In short: as §1

[10] = system: HPAF-II (Pancreatic Carcinoma); assay: as above
In short: as §1

[11] = system: MOLT-13 (T-Lymphoblastic Leukemia); assay: as above
In short: as §1

[12] = system: TUR (Acute Myeloid Leukemia); assay: as above
In short: as §1

NCI-H226 (Mesothelioma) = assay: as above
In short: as §1

| Structure (SMILES) | Bliss excess [1] | combination Emax [2] | combination Emax [3] | combination Emax (SK-N-SH (Neuroblastoma)) | combination Emax [4] | combination Emax (GAK (Melanoma)) | combination Emax [5] | combination Emax [6] | combination Emax [7] | combination Emax (ES6 (Ewing's Sarcoma)) | combination Emax [8] | combination Emax [9] | combination Emax [10] | combination Emax [11] | combination Emax [12] | combination Emax (NCI-H226 (Mesothelioma)) |
| --- | --- | --- | --- | --- | --- | --- | --- | --- | --- | --- | --- | --- | --- | --- | --- | --- |
| Cn1cnc2c(F)c(Nc3ccc(Br)cc3Cl)c(C(=O)NOCCO)cc21 [Selumetinib] + C[C@@H]1COCCN1C2=NC(=NC(=C2)C3(CC3)[S@](=N)(=O)C)C4=C5C=CNC5=NC=C4 [AZD6738] (first compound max 10 µM, 7x7, partner max 10 µM) | 0.0119 | 0.824 | 0.918 | 0.769 | 0.873 | 0.667 | 0.285 | 0.808 | 0.561 | 0.367 | 0.111 | 0.855 | 0.768 | 1 | 0.934 | 0.152 |
| CS(=O)(=O)CCNCc1ccc(-c2ccc3ncnc(Nc4ccc(OCc5cccc(F)c5)c(Cl)c4)c3c2)o1 [Lapatinib] + C[C@@H](Oc1cc(-c2cnn(C3CCNCC3)c2)cnc1N)c1c(Cl)ccc(F)c1Cl [Crizotinib] (first compound max 10 µM, 7x7, partner max 10 µM) | 0.0211 | 0.845 | 0.942 | 0.899 | 0.928 | 0.75 | 0.952 | 0.94 | 0.981 | 0.953 | 0.83 | 0.966 | 0.614 | 0.853 | 0.59 | 0.44 |
| NC1(C(=O)N[C@@H](CCO)c2ccc(Cl)cc2)CCN(c2ncnc3[nH]ccc23)CC1 [Capivasertib] + CC(=O)c1c(C)c2cnc(Nc3ccc(N4CCNCC4)cn3)nc2n(C2CCCC2)c1=O [Palbociclib] (first compound max 10 µM, 7x7, partner max 10 µM) | 0.0187 | 0.382 | 0.701 | 0.454 | 0.358 | 0.474 | 0.458 | 0.419 | 0.662 | 0.46 | 0.396 | 0.477 | 0.197 | 0.732 | 0.876 | 0.3 |
| NC1(C(=O)N[C@@H](CCO)c2ccc(Cl)cc2)CCN(c2ncnc3[nH]ccc23)CC1 [Capivasertib] + CCN(CCO)CCCOc1ccc2c(Nc3cc(CC(=O)Nc4cccc(F)c4)[nH]n3)ncnc2c1 [AZD2811] (first compound max 10 µM, 7x7, partner max 1 µM) | 0.0052 | 0.781 | 0.713 | 0.476 | 0.272 | 0.219 | 0.571 | 0.64 | 0.502 | 0.418 | 0.442 | 0.93 | 0.218 | 0.992 | 0.912 | 0.311 |
| Cn1cnc2c(F)c(Nc3ccc(Br)cc3Cl)c(C(=O)NOCCO)cc21 [Selumetinib] + CC(C)n1c(=O)n(C)c2cnc3cc(F)c(-c4ccc(OCCCN5CCCCC5)nc4)cc3c21 [AZD1390] (first compound max 10 µM, 7x7, partner max 0.3 µM) | 0.0088 | 0.0753 | 0.136 | 0.146 | 0.691 | 0.626 | 0.275 | 0.776 | 0.47 | 0.147 | 0.0506 | 0.303 | 0.64 | 0.456 | 0.272 | 0.133 |
| Cc1nc(Nc2ncc(C(=O)Nc3c(C)cccc3Cl)s2)cc(N2CCN(CCO)CC2)n1 [Dasatinib] + CC(=O)Nc1cccc(-n2c(=O)n(C3CC3)c(=O)c3c(Nc4ccc(I)cc4F)n(C)c(=O)c(C)c32)c1 [Trametinib] (first compound max 2 µM, 7x7, partner max 1 µM) | 0.0843 | 0.0279 | 0.407 | 0.476 | 0.961 | 0.788 | 0.832 | 0.994 | 0.826 | 0.439 | 0.0302 | 0.38 | 0.928 | 0.559 | 0.308 | 0.458 |
| COc1cc2ncnc(Nc3ccc(F)c(Cl)c3)c2cc1OCCCN1CCOCC1 [Gefitinib] + CC(C)n1c(=O)n(C)c2cnc3cc(F)c(-c4ccc(OCCCN5CCCCC5)nc4)cc3c21 [AZD1390] (first compound max 10 µM, 7x7, partner max 0.3 µM) | -0.066 | 0.0984 | 0.214 | 0.0891 | 0.0239 | 0.226 | 0.126 | 0.241 | 0.69 | 0.194 | 0.446 | 0.062 | 0.29 | 0.311 | 0.293 | 0.0952 |
